Measurements as given in patent publication US20260144769A1, “4-PHENYLBUTYRATE RESTORED GABA UPTAKE AND REDUCED SEIZURES IN SLC6A1 VARIANT-MEDIATED DISORDERS” (Vanderbilt University, priority 2022, published 2026).

Tests used:
GAT-1 (SLC6A1^+/S295L) = experiment: 3H GABA uptake, cortical astrocytes from SLC6A1^+/S295L knockin mice; format: cell-based, mouse; settings: S295L heterozygous astrocytes; PBA 2 mM, 24 hr; SNAP5114 30 μM
Experimental: Mouse cortical astrocytes or neurons were cultured from postnatal pus at day 0-3 days old for astrocytes and day 0 for neurons from the SLC6A1^+/A288V or SLC6A1^+/S295L mouse line. FIGS. 7A-B show astrocytes under passage 2 were grown in […] dishes and passaged into 35-mm^2 dishes before GABA uptake assay.
FIGS. 7C-D show neurons directly cultured in the 35-mm^2 dishes and GABA uptake was evaluated between day 15-17 days after culture. CI-966 (50 μM) and NNC711 (35 μM) was applied 30 min before preincubation and removed during preincubation. GAT-3 inhibitor SNAP5114 (30 μM) was applied during GABA uptake to make sure only GAT-1 activity was measured. The wildtype astrocytes (FIGS. 7A-B) or cortical neurons (FIGS. 7C-D) of either SLC6A1^+/A288V or SLC6A1^+/S295L were taken as 1. The cultures derived from each mutant mouse was compared to the culture from its own wildtype littermates. […] The wildtype data were pooled from two mouse lines. […] The graph represents the relative GABA uptake level normalized to cells of its own genotype treated with DMSO. CI-966 (50 μM) or NNC-711 (35 μM) was applied 30 min before preincubation and removed during preincubation. Two-way analysis of variance followed by Bonferroni multiple comparison test was used. Values were expressed as mean±S.E.M. In FIG. 7A and FIG. 7C, ***p<0.001 vs. wt; § § § P<0.001 S295L vs. A288V. […]

GAT-1 = GAT-1 protein expression (SDS-PAGE, anti-GAT-1 blot), patient human astrocytes; format: cell-based; settings: PBA 2 mM
Experimental: FIGS. 6A-B show human patient corrected (isogenic control, Corr) or uncorrected patient (Pat) astrocytes at day 30-35 after differentiation from iPSCs were co-transfected with the endoplasmic reticulum (ER) marker ER^CFP in combination with the wildtype or the mutant GAT-1^YFP cDNAs (0.5 μg: 0.5 μg per a 35 mm^2 dish) for 48 hrs before confocal microscopy analysis. Confocal images were acquired in live astrocytes under 63× objective with zoom under 2.5×. […] FIG. 6B represents the ER overlapping signal of GAT-1^YFP analyzed by Metamorph. […] Membranes were blotted with a rabbit polyclonal anti-GAT-1 antibody (FIG. 6C). The lysates of Chinese hamster ovary (CHO) cells were used as control. […] Values were expressed as mean±S.E.M.). […]
Data were expressed as mean±SEM. Proteins were quantified by Odyssey software and data were normalized to loading controls and then to the wildtype subunit protein, which was arbitrarily taken as 1 in each experiment. Fluorescence intensities from confocal microscopy experiments were determined using MetaMorph imaging software, and the measurements were carried out in ImageJ. […]

Question: `O=C(O)CCCc1ccccc1` [PBA, 4-phenylbutyric acid] was tested. Which “GABA uptake activity normalized to its own DMSO condition” value (GAT-1 (SLC6A1^+/S295L)) did it give?
Answer: Its value is 1.54±0.13.

Question: What about the “GAT-1 expression normalized to its own genotype DMSO treated” value (GAT-1; 24 hrs) of the same molecule?
Answer: Its value is 1.39±0.046.

Question: And the “total GAT-1 protein of the patient astrocytes as % of the corrected” value (GAT-1; 24 hrs (52.2% untreated))?
Answer: The value was 73.2%.
